In patent US8435769B2, “Use of glyphosate to produce shikimic acid in microorganisms” (Monsanto Technology LLC, priority 2007, dated 2013):

Key:
Format in all cases: cell-based, Escherichia coli
[1] = tested on: host strain LBB427 transformed with the plasmid pXT1457; assay: HPLC assay of culture supernatant after glyphosate treatment, pXT1457 strain
Protocol: To confirm that the new plasmid was functioning as expected, the wild-type E. coli K-12 host strain LBB427 was transformed with the plasmid pXT1457. Techniques for transforming bacteria, including strains of E. coli, are known in the art (Sambrook and Russell, 2001; Ausubel et al., 2005). The shikimic acid and phenylalanine production levels of this strain were compared to that of the untransformed host strain LBB427. The strains were cultured in 50 milliliters of Vogel-Bonner minimal culture medium (Vogel and Bonner, 1956), consisting of magnesium sulfate heptahydrate (MgSO4-7H2O) at 298 milligrams per liter, anhydrous dibasic potassium phosphate (K2HPO4) at 14.93 grams per liter, sodium ammonium phosphate tetrahydrate (NaNH4HPO4-4H2O) at 5.22 grams per liter, anhydrous citric acid (the free acid form) at 2.73 grams per liter, and glucose at 2.00 grams per liter. The pH of the culture medium was 7.0. For the strain LBB427 transformed with the plasmid pXT1457, ampicillin was included in the culture medium at 100 milligrams per liter. The cultures were grown in flasks, on an incubator shaker operating at 300 rpm and 37 degrees Celsius. At 24 hours after inoculation, the cells were pelleted by centrifugation, and the culture supernatants were analyzed by a high-pressure liquid chromatography (HPLC) assay for shikimic acid and phenylalanine content. To the samples to be assayed, phosphoric acid was added to a final concentration of 6 millimolar. […]
The untransformed host strain LBB427 and the host strain LBB427 transformed with the plasmid pXT1457 were grown in 50 milliliters of the Vogel-Bonner minimal culture medium described in Example 1. […] At 24 hours after inoculation (i.e., 21.5 hours after N-(phosphonomethyl)glycine addition), the cells were pelleted by centrifugation, and the culture supernatants were analyzed for shikimic acid content using the HPLC assay described in Example 1. The culture supernatants of the host strain LBB427 transformed with the plasmid pXT1457 were also analyzed for phenylalanine content. […]

[2] = tested on: untransformed host strain LBB427; assay: HPLC assay of culture supernatant after glyphosate treatment, untransformed strain
Protocol: (§1) To confirm that the new plasmid was functioning as expected, the wild-type E. coli K-12 host strain LBB427 was transformed with the plasmid pXT1457. Techniques for transforming bacteria, including strains of E. coli, are known in the art (Sambrook and Russell, 2001; Ausubel et al., 2005). The shikimic acid and phenylalanine production levels of this strain were compared to that of the untransformed host strain LBB427. […] At 24 hours after inoculation, the cells were pelleted by centrifugation, and the culture supernatants were analyzed by a high-pressure liquid chromatography (HPLC) assay for shikimic acid and phenylalanine content. […]
[…] At 24 hours after inoculation (i.e., 21.5 hours after N-(phosphonomethyl)glycine addition), the cells were pelleted by centrifugation, and the culture supernatants were analyzed for shikimic acid content using the HPLC assay described in Example 1. The culture supernatants of the host strain LBB427 transformed with the plasmid pXT1457 were also analyzed for phenylalanine content. […]

[3] = tested on: host strain LBB427 transformed with the plasmid pXT1483; assay: High-density phosphate-limited fermentation culture with glyphosate addition; settings: optical density of 40; glyphosate 20 millimolar; twelve hours after addition; sample at pH 1.0, 60 degrees Celsius, 15 minutes
Protocol: The host strain LBB427 transformed with the plasmid pXT1483 can be grown to high optical densities in a phosphate-limited fermentation culture. Fermentations are conducted in a chemically-defined minimal medium containing 5.9 grams of anhydrous ammonium sulfate ((NH4)2SO4), 1.8 grams of anhydrous dibasic potassium phosphate (K2HPO4), 1.0 grams of monobasic sodium phosphate monohydrate (NaH2PO4—H2O), 550 milligrams of magnesium sulfate heptahydrate (MgSO4-7H2O), 27 milligrams of ferric chloride hexahydrate (FeCl3-6H2O), 0.5 milligrams of zinc sulfate heptahydrate (ZnSO4-7H2O), 0.9 milligrams of cobalt chloride hexahydrate (CoCl2-6H2O), 0.9 milligrams of sodium molybdate dihydrate (Na2MoO4-2H2O), 1.1 milligrams of cupric sulfate pentahydrate (CuSO4-5H2O), 0.3 milligrams of boric acid (H3BO3), and 0.7 milligrams of manganese sulfate monohydrate (MnSO4—H2O) per liter of water. The fermenter is maintained at 37 degrees Celsius. The pH is maintained at 7.0 by the controlled addition of concentrated (about 29%) ammonium hydroxide (NH4OH). […]
Twelve hours after N-(phosphonomethyl)glycine addition, samples of the fermentation cultures are taken for analysis of shikimic acid levels. […] The cells are pelleted by centrifugation, and the culture supernatants are analyzed for shikimic acid content using the HPLC assay described in Example 1.

[4] = tested on: host strain LBB427 transformed with the plasmid pXT1483; assay: HPLC assay of culture supernatant after glyphosate treatment, pXT1483 strain
[5] = tested on: E. coli K-12 host strain LBB427 (untransformed and transformed with plasmid pXT1457); assay: Growth of shake-flask cultures after glyphosate addition; settings: glyphosate 3.38 grams per liter (20 millimolar) added 2.5 hours after inoculation; Vogel-Bonner minimal culture medium; 37 degrees Celsius
Protocol: as §1
The untransformed host strain LBB427 and the host strain LBB427 transformed with the plasmid pXT1457 were grown in 50 milliliters of the Vogel-Bonner minimal culture medium described in Example 1. […] At 24 hours after inoculation (i.e., 21.5 hours after N-(phosphonomethyl)glycine addition), the cells were pelleted by centrifugation, and the culture supernatants were analyzed for shikimic acid content using the HPLC assay described in Example 1. The culture supernatants of the host strain LBB427 transformed with the plasmid pXT1457 were also analyzed for phenylalanine content.

[6] = glyphosate 20 millimolar and phosphate-limitation (PF culture medium), 24 hours after inoculation
[7] = glyphosate 20 millimolar, Vogel-Bonner minimal culture medium, 24 hours after inoculation (21.5 hours after addition)

O=C(O)CNCP(=O)(O)O [glyphosate, N-(phosphonomethyl)-glycine]
shikimic acid in the culture supernatant [1, 6]: about 250 milligrams of shikimic acid per OD unit per liter | shikimic acid in the culture supernatant [1, 7]: did not produce detectable levels of shikimic acid | phenylalanine in the culture supernatant ([1]; glyphosate 20 millimolar, Vogel-Bonner minimal culture medium, 24 hours after inoculation, about 400 without glyphosate): about 50 milligrams of phenylalanine per OD unit per liter | shikimic acid in the culture supernatant [2, 6]: about 200 milligrams of shikimic acid per OD unit per liter | shikimic acid in the culture supernatant [2, 7]: did not produce detectable levels of shikimic acid | shikimic acid in the culture supernatant [3]: about 24 grams of shikimic acid per liter | shikimic acid in the culture supernatant [4, 6]: about 400 milligrams of shikimic acid per OD unit per liter | level of shikimic acid in the culture supernatant ([4]; glyphosate 20 millimolar and phosphate-limitation, culture sample with cells adjusted to pH 1.0, heated to 60 degrees Celsius for 15 minutes): about 600 milligrams per OD unit per liter | Growth of the cultures [5]: almost completely inhibited
